ChEMBL document CHEMBL3046617, “Effects of fungicides on in vitro spore germination and mycelial growth of the phytopathogens Leptosphaeria maculans and L. biglobosa (phoma stem canker of oilseed rape)” (2010)
Values after ≈ are worked out from the molar mass of the structure shown. Active and inactive are the calls of the source. The calls are words filed in the database; no cut-off is given here.

Assays:
Plenodomus lingam [1] = assay: Antifungal activity against Leptosphaeria maculans assessed as inhibition of conidia germination at 4 ug/ml after 22 hr; type: functional
Plenodomus biglobosus [2] = assay: Antifungal activity against Leptosphaeria biglobosa assessed as reduction of conidia production at 1 to 4 ug/ml after 2 weeks; type: functional, organism-based
Plenodomus biglobosus [3] = assay: Antifungal activity against Leptosphaeria biglobosa assessed as viable ascospore at 1 to 4 ug/ml after 1 week; type: functional, organism-based
Plenodomus lingam [4] = assay: Antifungal activity against Leptosphaeria maculans assessed as reduction of germ tube length at 1 ug/ml after 22 hr relative to control; type: functional; set-up: scale not given: the % may be the effect or the level left
Plenodomus lingam [5] = assay: Antifungal activity against Leptosphaeria maculans assessed as reduction of conidia production at 1 to 4 ug/ml after 2 weeks; type: functional, organism-based
Plenodomus lingam [6] = assay: Antifungal activity against Leptosphaeria maculans assessed as viable conidia at 2 to 4 ug/ml after 1 week; type: functional, organism-based
Plenodomus lingam [7] = assay: Antifungal activity against Leptosphaeria maculans assessed as viable ascospore at 1 to 4 ug/ml after 1 week; type: functional, organism-based
Plenodomus biglobosus [8] = assay: Antifungal activity against Leptosphaeria biglobosa assessed as inhibition of conidia germination at 4 ug/ml after 22 hr; type: functional
Plenodomus biglobosus [9] = assay: Antifungal activity against Leptosphaeria biglobosa assessed as reduction of germ tube length at 1 ug/ml after 22 hr relative to control; type: functional; set-up: scale not given: the % may be the effect or the level left
Plenodomus lingam [10] = assay: Antifungal activity against Leptosphaeria maculans assessed as reduction of germ tube length at 2 ug/ml after 22 hr relative to control; type: functional; set-up: scale not given: the % may be the effect or the level left
Plenodomus biglobosus [11] = assay: Antifungal activity against Leptosphaeria biglobosa assessed as viable conidia at 2 to 4 ug/ml after 1 week; type: functional, organism-based
Plenodomus biglobosus [12] = assay: Antifungal activity against Leptosphaeria biglobosa assessed as reduction of germ tube length at 2 ug/ml after 22 hr relative to control; type: functional; set-up: scale not given: the % may be the effect or the level left
Plenodomus lingam [13] = assay: Antifungal activity against Leptosphaeria maculans assessed as reduction of germ tube length at 4 ug/ml after 22 hr relative to control; type: functional; set-up: scale not given: the % may be the effect or the level left
Plenodomus biglobosus [14] = assay: Antifungal activity against Leptosphaeria biglobosa assessed as reduction of germ tube length at 4 ug/ml after 22 hr relative to control; type: functional; set-up: scale not given: the % may be the effect or the level left
Plenodomus biglobosus [15] = assay: Antifungal activity against Leptosphaeria biglobosa assessed as ascospore germination at 1 to 4 ug/ml after 22 hr; type: functional
Plenodomus lingam [16] = assay: Antifungal activity against Leptosphaeria maculans assessed as ascospore germination at 1 to 4 ug/ml after 22 hr; type: functional
Plenodomus biglobosus [17] = assay: Antifungal activity against Leptosphaeria biglobosa assessed as ascospore germination at 0.25 to 1 ug/ml after 22 hr; type: functional
Plenodomus biglobosus [18] = assay: Antifungal activity against Leptosphaeria biglobosa assessed as reduction of germ tube length at 0.25 ug/ml after 22 hr relative to control; type: functional; set-up: scale not given: the % may be the effect or the level left
Plenodomus biglobosus [19] = assay: Antifungal activity against Leptosphaeria biglobosa assessed as inhibition of mycelial growth after 7 days; type: functional; conditions: 168 h, read-out: ED50 (the source's name)
Plenodomus lingam [20] = assay: Antifungal activity against Leptosphaeria maculans assessed as inhibition of mycelial growth after 17 days; type: functional; conditions: 408 h, read-out: ED50 (the source's name)
Plenodomus biglobosus [21] = assay: Antifungal activity against Leptosphaeria biglobosa assessed as viable conidia at 0.25 to 1 ug/ml after 1 week; type: functional, organism-based
Plenodomus lingam [22] = assay: Antifungal activity against Leptosphaeria maculans assessed as inhibition of conidia germination at 0.25 to 1 ug/ml after 22 hr; type: functional, organism-based
Plenodomus lingam [23] = assay: Antifungal activity against Leptosphaeria maculans assessed as reduction of conidia production at 0.25 to 1 ug/ml after 2 weeks; type: functional, organism-based
Plenodomus lingam [24] = assay: Antifungal activity against Leptosphaeria maculans assessed as ascospore germination at 0.25 to 1 ug/ml after 22 hr; type: functional
Plenodomus lingam [25] = assay: Antifungal activity against Leptosphaeria maculans assessed as reduction of germ tube length at 0.25 ug/ml after 22 hr relative to control; type: functional; set-up: scale not given: the % may be the effect or the level left
Plenodomus biglobosus [26] = assay: Antifungal activity against Leptosphaeria biglobosa assessed as reduction of conidia production at 0.25 to 1 ug/ml after 2 weeks; type: functional, organism-based
Plenodomus lingam [27] = assay: Antifungal activity against Leptosphaeria maculans assessed as reduction of germ tube length at 0.5 ug/ml after 22 hr relative to control; type: functional; set-up: scale not given: the % may be the effect or the level left
Plenodomus lingam [28] = assay: Antifungal activity against Leptosphaeria maculans assessed as viable ascospore at 0.25 to 1 ug/ml after 1 week; type: functional, organism-based
Plenodomus lingam [29] = assay: Antifungal activity against Leptosphaeria maculans assessed as viable conidia at 0.25 to 1 ug/ml after 1 week; type: functional, organism-based
Plenodomus biglobosus [30] = assay: Antifungal activity against Leptosphaeria biglobosa assessed as reduction of germ tube length at 0.5 ug/ml after 22 hr relative to control; type: functional; set-up: scale not given: the % may be the effect or the level left
Plenodomus biglobosus [31] = assay: Antifungal activity against Leptosphaeria biglobosa assessed as viable ascospore at 0.25 to 1 ug/ml after 1 week; type: functional, organism-based
Plenodomus biglobosus [32] = assay: Antifungal activity against Leptosphaeria biglobosa assessed as inhibition of conidia germination at 0.25 to 1 ug/ml after 22 hr; type: functional, organism-based
Plenodomus lingam [33] = assay: Antifungal activity against Leptosphaeria maculans; type: functional; conditions: read-out: ED50 (the source's name)
Plenodomus biglobosus [34] = assay: Antifungal activity against Leptosphaeria biglobosa assessed as viable ascospore at 0.75 to 3 ug/ml after 1 week; type: functional, organism-based
Plenodomus biglobosus [35] = assay: Antifungal activity against Leptosphaeria biglobosa assessed as viable conidia at 0.75 to 3 ug/ml after 1 week; type: functional, organism-based
Plenodomus lingam [36] = assay: Antifungal activity against Leptosphaeria maculans assessed as ascospore germination at 0.75 to 3 ug/ml after 22 hr; type: functional
Plenodomus lingam [37] = assay: Antifungal activity against Leptosphaeria maculans assessed as viable ascospore at 0.75 to 3 ug/ml after 1 week; type: functional, organism-based
Plenodomus lingam [38] = assay: Antifungal activity against Leptosphaeria maculans assessed as reduction of conidia production at 0.75 to 3 ug/ml after 2 weeks; type: functional, organism-based
Plenodomus biglobosus [39] = assay: Antifungal activity against Leptosphaeria biglobosa assessed as inhibition of conidia germination at 0.75 to 3 ug/ml after 22 hr; type: functional, organism-based
Plenodomus biglobosus [40] = assay: Antifungal activity against Leptosphaeria biglobosa assessed as reduction of conidia production at 0.75 to 3 ug/ml after 2 weeks; type: functional, organism-based
Plenodomus biglobosus [41] = assay: Antifungal activity against Leptosphaeria biglobosa assessed as ascospore germination at 0.75 to 3 ug/ml after 22 hr; type: functional
Plenodomus lingam [42] = assay: Antifungal activity against Leptosphaeria maculans assessed as inhibition of conidia germination at 0.75 to 3 ug/ml after 22 hr; type: functional, organism-based
Plenodomus biglobosus [43] = assay: Antifungal activity against Leptosphaeria biglobosa assessed as reduction of germ tube length at 1.5 ug/ml after 22 hr relative to control; type: functional; set-up: scale not given: the % may be the effect or the level left
Plenodomus lingam [44] = assay: Antifungal activity against Leptosphaeria maculans assessed as viable conidia at 0.75 to 3 ug/ml after 1 week; type: functional, organism-based
Plenodomus biglobosus [45] = assay: Antifungal activity against Leptosphaeria biglobosa assessed as reduction of germ tube length at 0.75 ug/ml after 22 hr relative to control; type: functional; set-up: scale not given: the % may be the effect or the level left
Plenodomus lingam [46] = assay: Antifungal activity against Leptosphaeria maculans assessed as reduction of germ tube length at 0.75 ug/ml after 22 hr relative to control; type: functional; set-up: scale not given: the % may be the effect or the level left
Plenodomus biglobosus [47] = assay: Antifungal activity against Leptosphaeria biglobosa assessed as reduction of germ tube length at 3 ug/ml after 22 hr relative to control; type: functional; set-up: scale not given: the % may be the effect or the level left
Plenodomus lingam [48] = assay: Antifungal activity against Leptosphaeria maculans assessed as reduction of germ tube length at 1.5 ug/ml after 22 hr relative to control; type: functional; set-up: scale not given: the % may be the effect or the level left
Plenodomus lingam [49] = assay: Antifungal activity against Leptosphaeria maculans assessed as reduction of germ tube length at 3 ug/ml after 22 hr relative to control; type: functional; set-up: scale not given: the % may be the effect or the level left

CCCCNC(=O)n1c(NC(=O)OC)nc2ccccc21 [BENOMYL]
inhibition at 4 µg/mL (Plenodomus lingam [1]): > 80%
Activity (Plenodomus biglobosus [2]): Active
Activity (Plenodomus biglobosus [3]): inactive
Activity (Plenodomus lingam [4]): 46.8%
Activity (Plenodomus lingam [5]): inactive
Activity (Plenodomus lingam [6]): Active
Activity (Plenodomus lingam [7]): inactive
inhibition at 4 µg/mL (Plenodomus biglobosus [8]): 15%
Activity (Plenodomus biglobosus [9]): 4.5%
Activity (Plenodomus lingam [10]): 68.3%
Activity (Plenodomus biglobosus [11]): Active
Activity (Plenodomus biglobosus [12]): 85.5%
Activity (Plenodomus lingam [13]): 65.8%
Activity (Plenodomus biglobosus [14]): 81.6%
Activity (Plenodomus biglobosus [15]): 94%
Activity (Plenodomus lingam [16]): 96%

C[Si](Cn1cncn1)(c1ccc(F)cc1)c1ccc(F)cc1 [FLUSILAZOLE]
Activity (Plenodomus biglobosus [17]): 94%
Activity (Plenodomus biglobosus [18]): 56.9%
EC50 (Plenodomus biglobosus [19]): 0.67 µg/mL (≈ 2.12 µM)
EC50 (Plenodomus lingam [20]): 0.27 µg/mL (≈ 0.856 µM)
Activity (Plenodomus biglobosus [21]): inactive
inhibition (Plenodomus lingam [22]): Active
Activity (Plenodomus lingam [23]): inactive
Activity (Plenodomus lingam [24]): 96%
Activity (Plenodomus lingam [4]): 22.5%
Activity (Plenodomus lingam [25]): 15.9%
Activity (Plenodomus biglobosus [26]): Active
Activity (Plenodomus lingam [27]): 22.1%
Activity (Plenodomus lingam [28]): inactive
Activity (Plenodomus biglobosus [9]): 53.8%
Activity (Plenodomus lingam [29]): inactive
Activity (Plenodomus biglobosus [30]): 56.3%
Activity (Plenodomus biglobosus [31]): inactive
inhibition (Plenodomus biglobosus [32]): Active

OC(Cn1cncn1)(c1ccc(F)cc1)c1ccccc1F (stereo not drawn) [FLUTRIAFOL]
EC50 (Plenodomus lingam [33]): 0.45 µg/mL (≈ 1.49 µM)

CC(C)(C)C(O)(CCc1ccc(Cl)cc1)Cn1cncn1 (stereo not drawn) [TEBUCONAZOLE]
Activity (Plenodomus biglobosus [34]): inactive
Activity (Plenodomus biglobosus [35]): inactive
EC50 (Plenodomus biglobosus [19]): 1.45 µg/mL (≈ 4.71 µM)
EC50 (Plenodomus lingam [20]): 0.34 µg/mL (≈ 1.1 µM)
Activity (Plenodomus lingam [36]): 96%
Activity (Plenodomus lingam [37]): inactive
Activity (Plenodomus lingam [38]): inactive
inhibition (Plenodomus biglobosus [39]): Active
Activity (Plenodomus biglobosus [40]): Active
Activity (Plenodomus biglobosus [41]): 94%
inhibition (Plenodomus lingam [42]): Active
Activity (Plenodomus biglobosus [43]): 63.4%
Activity (Plenodomus lingam [44]): inactive
Activity (Plenodomus biglobosus [45]): 64.3%
Activity (Plenodomus lingam [46]): 44%
Activity (Plenodomus biglobosus [47]): 69.6%
Activity (Plenodomus lingam [48]): 36.7%
Activity (Plenodomus lingam [49]): 43.2%
